From US20060272107A1, “Hair relaxing composition comprising at least one non-hydroxide polyguanidine” (priority 2005, published 2006)

Experiment: Hair relaxing test: simplified aqueous composition applied to hair
Experimental: A simplified hair relaxing composition was prepared, containing N″,N″-1,3-propanediylbis[N,N,N′,N′-tetramethylguanidine] (RN: 289474-28-8) at a concentration of 0.5M in water, as active relaxing agent. This composition was applied to naturally frizzy African hair for 20 minutes at a temperature of 30° C.
A simplified hair relaxing composition was prepared, containing N″,N″,N″″-(nitrilotri-2,1-ethanediyl)tris[N,N,N′,N′-tetramethylguanidine] (RN: 368866-05-1) at a concentration of 0.25M in water, as active relaxing agent. This composition was applied to naturally frizzy African hair for 25 minutes at a temperature of 30° C.

| SMILES | hair relaxing (0.5M in water, applied for 20 minutes at 30° C) | hair relaxing (0.25M in water, applied for 25 minutes at 30° C) |
| --- | --- | --- |
| CN(C)C(=NCCCN=C(N(C)C)N(C)C)N(C)C [N″,N″-1,3-propanediylbis[N,N,N′,N′-tetramethylguanidine]] | effectively relaxed | – |
| CN(C)C(=NCCN(CCN=C(N(C)C)N(C)C)CCN=C(N(C)C)N(C)C)N(C)C [N″,N″,N″″-(nitrilotri-2,1-ethanediyl)tris[N,N,N′,N′-tetramethylguanidine]] | – | effectively relaxed |
